Columns and labels:
[1] = tested on: 145 kDa binding protein for cholesterol absorption inhibitors; assay: Photoaffinity labeling with biotin-tagged C-4 and extraction with streptavidin beads; parameters: species or system rabbit
Description: 10 Samples of rabbit ileal brush border membrane vesicles (200 µg of protein) were incubated with 200 μM of the biotin-tagged cholesterol inhibitor C-4 in 10 mM Tris/Hepes buffer (pH 7.4)/100 mM NaCl/100 mM mannitol for 30 min in the dark at 20° C. followed by irradiation at 254 nm for 30 sec in a Rayonet RPR-100 photochemical reactor equipped with 4 RPR 2537 Å-lamps. After collecting, the vesicles were washed 3 times with 2 ml Tris/Hepes buffer (pH 7.4)/300 mM mannitol. The final pellet was suspended in 2 ml of “solubilization buffer” for 1 hour at 4° C. After centrifugation, the clear supernatant was mixed with 0.5 ml of streptavidin-agarose beads and kept under stirring at 4° C. for 2 hours. After centrifugation, the beads were incubated with 2 ml 10 mM Tris/Hepes buffer (pH 7.4)/300 mM mannitol/1% n-octylglucoside/4 mM PMSF/4 mM iodacetamide/4 mM EDTA/for 10 min at 4° C. followed by centrifugation. After repeating this procedure twice, proteins were eluted from the streptavidin-agarose beads with 3 portions a 2 ml of the above buffer containing 5 mM biotin. From all eluates aliquots were removed for the determination of the enzymatic activity of aminopeptidase N and sucrase and for analysis by SDS-PAGE. For final purification the biotin eluates containing the covalently modified 145 kDa binding protein for cholesterol absorption inhibitors was achieved by preparative SDS gel electrophoresis as described above.
Rabbit small intestinal BBMV were incubated with 200 μM of C-4 and crosslinking was achieved by ultraviolet irradiation at 254 nm. After solubilization the covalently modified proteins containing the biotin-tagged 2-azetidinone cholesterol absorption inhibitors were extracted with streptavidin-beads. After intensive washing bound proteins were eluted with a 10 mM solution of biotin and analyzed by SDS-PAGE. […] Therefore, the 145 kDa binding protein could only be purified from those anatomical sites where intestinal cholesterol absorption occurs, the duodenum, jejunum and ileum. […]

[2] = tested on: intestinal cholesterol absorption; assay: Inhibition of intestinal cholesterol absorption (modified Zilversmit/Hughes method); assay type: in vivo; conditions: NMRI mice, application of the biotin-tagged photoaffinity label
Description: Intestinal cholesterol absorption was determined by a modification of the Zilversmit/Hughes method. Male NMRI mice (Charles River Deutschland GmbH, Salzfeld, Germany) kept on regular chow (Altronin®, Lage, Germany) were starved for 12 hours. Then, 0.5 ml of a solution of 0.5% methylcellulose/5% Solutol (BASF, Ludwigshafen, Germany) as vehicle with or without 3 mg of the respective cholesterol absorption inhibitor were applied by gavage to each animal followed by 0.25 ml of Intralipid® (Pharmacia & Upjohn, Erlangen, Germany) solution containing 0.24 μCi [^14C]cholesterol and 0.25 μCi [^3H]sitosterol. The animals (five mice per group) were kept on metabolism cages and feces were collected. After 24 hours the animals were killed and the radioactivity in the feces and the liver was determined by combustion analysis.
(§1) For a one-step purification of the target-protein for cholesterol absorption inhibitors we have coupled the biotin-containing photolabile group N-(biotinyl)-4-azidophenyl alanine via a spacer to the para-position of the N-phenyl or benzylamino ring of 2-azetidinone cholesterol absorption inhibitors.

[3] = tested on: 145 kDa binding protein for cholesterol absorption inhibitors; assay: Photoaffinity labeling of small intestinal BBMV with [3H]C-1 in the presence of competitor; conditions: rabbit small intestinal BBMV, increasing concentrations of competitor
Description: 8 Samples of rabbit ileal brush border membrane vesicles (250 μg of protein) were incubated with 66 nM (0.3 μCi) of [^3H]C-1 in 10 mM Tris/Hepes buffer (pH 7.4)/100 mM NaCl/100 mM mannitol for 30 min at 20° C. in the dark. After irradiation for 30 sec at 254 nm in a Rayonet RPR 100 photochemical reactor equipped with 4 RPR 2537 Å lamps (The Southern Ultraviolet Company, Hamden, Conn., USA) the samples were collected and after centrifugation the membrane vesicles were resuspended in 2 ml 10 mM Tris/Hepes buffer (pH 7.4)/300 mM mannitol and centrifugated after 20 min at 20° C. This procedure was repeated three times. The resulting pellet was solubilized with 2 ml “solubilization buffer”. After centrifugation, a 40 μl aliquot of the supernatant was removed and analyzed by SDS PAGE and subsequent slicing of the gel for incorporation of radioactivity into membrane proteins.
as §1

Structure (SMILES): O=C1[C@H](CC[C@H](O)c2ccc(F)cc2)[C@@H](c2ccc(O)cc2)N1c1ccc(F)cc1 [Ezetimibe, reference compound]
- amount of 145 kDa protein extractable with streptavidin beads ([1]; competitor present during photolabeling with C-4, 200 μM for cholesterol absorption inhibitors): reduced

Structure (SMILES): COc1ccc(C2C(CC[C@H](O)c3ccccc3)C(=O)N2c2ccc(NC(=O)CCCCNC(=O)C(Cc3ccc(N=[N+]=[N-])cc3)NC(=O)CCCCC3SCC4NC(=O)NC43)cc2)cc1 (some centres unmarked) [C-4, 5-(2-Oxo-hexahydro-thieno[3,4-d]imidazol-6-yl)-pentanoic acid-[2-(4-azido-phenyl)-1-(4-{4-[3-(3-hydroxy-3-phenyl-propyl)-2-(4-methoxy-phenyl)4-oxo-azetidin-1-yl]-phenylcarbamoyl}-butylcarbamoyl)-ethyl]-amid]
- intestinal cholesterol absorption [2]: dose-dependently inhibited
- extent of labeling of the 145 kDa-protein by [3H]C-1 [3]: concentration-dependent decrease
- 145 kDa protein retarded by streptavidin beads after labeling of membranes from other organs ([1]; BBMV from stomach, cecum, colon, rectum, kidney, liver or adipocytes): no 145 kDa protein was retarded by streptavidin beads
- proteins retained by the streptavidin-beads after crosslinking ([1]; rabbit small intestinal BBMV, 200 μM C-4, ultraviolet irradiation at 254 nm, SDS-PAGE): Predominantly one protein of Mr 145 kDa was retained

Reference: patent US7435727B2, “Method for isolating an intestinal cholesterol binding protein” (Sanofi-Aventis Deutschland GmbH, priority 2002, dated 2008)
